Where a SMILES comes first, the peptide text is derived from it.
Target: T1, EcPBP3 (Escherichia coli, UniProt P0AD68)
T1 construct: For assays, selections and SPR a construct with residues 60–588 which has the N-terminal domain, but not the transmembrane helix, was used; made in house
Assay: Fluorescence polarisation competition assay with fluorescent Bicycle tracer (tracer 1 / BCY12820)
Format: binding
Settings: protein 9.4 nM sets sensitivity limit, top concentration 5 µM, read-out: Ki (nM) by fluorescence polarisation with tracer 1 (BCY12820 as tracer), Geometric mean (Lower 95% CI; Upper 95% CI, n=number of values)
Experimental: Competition fluorescence polarisation assays were run by observing the fluorescence polarisation of a fluorescent “tracer” Bicycle molecule which competes against an unlabelled peptide for binding to the EcPBP3 target. 10 µL of protein (9.4 nM) was mixed with either 5 µL of peptide or 5 µL of buffer and then the assay was initiated by the addition of 10 µL of tracer (1 nM) (final volume 25 µL), in a black 384 low bind, low volume plate (Corning). The buffer was 10 mM HEPES (Sigma), 2% (v/v) glycerol (Sigma), 300 mM NaCl (Sigma), adjusted to pH 8. The plate was incubated for 1 h at 25 °C and then read in a PHERAstar FS (BMG) using with an “FP 485 520 520” optic module (excitation 485 nm, emission 520 nm). The gain was determined immediately prior to the read on a tracer-only well.
Dotmatics (Dotmatics) workflows performing the above calculations were used to process the data. Values quoted are the geometric means of at least 2 repeats.

T1 sequence (P0AD68 60-588): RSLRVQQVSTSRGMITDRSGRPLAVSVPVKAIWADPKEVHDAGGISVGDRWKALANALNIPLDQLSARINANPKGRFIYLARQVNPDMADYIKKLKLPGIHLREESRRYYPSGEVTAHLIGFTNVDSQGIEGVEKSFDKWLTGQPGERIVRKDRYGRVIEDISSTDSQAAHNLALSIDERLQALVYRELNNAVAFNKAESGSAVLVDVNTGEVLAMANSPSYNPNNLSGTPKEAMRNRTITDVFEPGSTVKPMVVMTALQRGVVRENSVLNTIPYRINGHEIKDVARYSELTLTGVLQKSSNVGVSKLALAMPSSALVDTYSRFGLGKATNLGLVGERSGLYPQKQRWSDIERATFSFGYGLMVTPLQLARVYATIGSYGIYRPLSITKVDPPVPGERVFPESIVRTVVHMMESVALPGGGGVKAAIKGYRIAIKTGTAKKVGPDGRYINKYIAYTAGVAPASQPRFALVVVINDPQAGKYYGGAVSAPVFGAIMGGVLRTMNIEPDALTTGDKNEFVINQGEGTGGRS

SMILES	Ki [nM]
CC(C)[C@@H]1NC(=O)[C@H](Cc2c[nH]c3ccccc23)NC(=O)[C@@H]2CCCN2C(=O)[C@@H]2CSCCC(=O)N3CN(CN(C3)C(=O)CCSC[C@H](NC(=O)[C@H](C)N)C(=O)N[C@@H](CO)C(=O)N[C@@H](Cc3ccccc3)C(=O)N[C@@H](CC(=O)O)C(=O)N[C@@H](CCCCNC(=N)N)C(=O)N2)C(=O)CCSC[C@@H](C(=O)N[C@@H](C)C(N)=O)NC(=O)CNC(=O)[C@H](CCC(=O)O)NC1=O [Peptide 38] (HELM PEPTIDE1{A.C.S.F.D.[N=C(N)NCCCC[C@H](N[*:1])C(=O)[*:2]].C.P.W.V.E.G.C.A.[am]}|CHEM1{[O=C(CC[*:1])N1CN(C(=O)CC[*:2])CN(C(=O)CC[*:3])C1]}$PEPTIDE1,CHEM1,2:R3-1:R1|PEPTIDE1,CHEM1,7:R3-1:R2|PEPTIDE1,CHEM1,13:R3-1:R3$$$V2.0)	167
CC(C)[C@@H]1NC(=O)[C@H](Cc2c[nH]c3ccccc23)NC(=O)[C@@H]2CCCN2C(=O)[C@@H]2CSCCC(=O)N3CN(CN(C3)C(=O)CCSC[C@@H](C(=O)N[C@@H](C)C(N)=O)NC(=O)[C@H](Cc3c[nH]cn3)NC(=O)[C@H](CCC(=O)O)NC1=O)C(=O)CCSC[C@H](NC(=O)[C@H](C)N)C(=O)N[C@@H](CO)C(=O)N[C@@H](Cc1ccccc1)C(=O)N1CCC[C@H]1C(=O)N[C@@H](CCCCNC(=N)N)C(=O)N2 [Peptide 53] (HELM PEPTIDE1{A.C.S.F.P.[N=C(N)NCCCC[C@H](N[*:1])C(=O)[*:2]].C.P.W.V.E.H.C.A.[am]}|CHEM1{[O=C(CC[*:1])N1CN(C(=O)CC[*:2])CN(C(=O)CC[*:3])C1]}$PEPTIDE1,CHEM1,2:R3-1:R1|PEPTIDE1,CHEM1,7:R3-1:R2|PEPTIDE1,CHEM1,13:R3-1:R3$$$V2.0)	< 9
CC(C)[C@@H]1NC(=O)[C@H](Cc2c[nH]c3ccccc23)NC(=O)[C@@H]2CCCN2C(=O)[C@@H]2CSCCC(=O)N3CN(CN(C3)C(=O)CCSC[C@H](NC(=O)[C@H](C)N)C(=O)N[C@@H](CO)C(=O)N[C@@H](Cc3ccccc3)C(=O)NCC(=O)N[C@@H](CCCCNC(=N)N)C(=O)N2)C(=O)CCSC[C@@H](C(=O)N[C@@H](C)C(N)=O)NC(=O)CNC(=O)[C@H](CCC(=O)O)NC1=O [Peptide 33] (HELM PEPTIDE1{A.C.S.F.G.[N=C(N)NCCCC[C@H](N[*:1])C(=O)[*:2]].C.P.W.V.E.G.C.A.[am]}|CHEM1{[O=C(CC[*:1])N1CN(C(=O)CC[*:2])CN(C(=O)CC[*:3])C1]}$PEPTIDE1,CHEM1,2:R3-1:R1|PEPTIDE1,CHEM1,7:R3-1:R2|PEPTIDE1,CHEM1,13:R3-1:R3$$$V2.0)	53.5
CC(C)[C@@H]1NC(=O)[C@H](Cc2c[nH]c3ccccc23)NC(=O)[C@@H]2CCCN2C(=O)[C@@H]2CSCCC(=O)N3CN(CN(C3)C(=O)CCSC[C@H](NC(=O)[C@H](C)N)C(=O)N[C@@H](CCC(N)=O)C(=O)N[C@@H](Cc3ccccc3)C(=O)N3CCC[C@H]3C(=O)N[C@@H](CCCCNC(=N)N)C(=O)N2)C(=O)CCSC[C@@H](C(=O)N[C@@H](C)C(N)=O)NC(=O)CNC(=O)[C@H](CCC(=O)O)NC1=O [Peptide 30] (HELM PEPTIDE1{A.C.Q.F.P.[N=C(N)NCCCC[C@H](N[*:1])C(=O)[*:2]].C.P.W.V.E.G.C.A.[am]}|CHEM1{[O=C(CC[*:1])N1CN(C(=O)CC[*:2])CN(C(=O)CC[*:3])C1]}$PEPTIDE1,CHEM1,2:R3-1:R1|PEPTIDE1,CHEM1,7:R3-1:R2|PEPTIDE1,CHEM1,13:R3-1:R3$$$V2.0)	< 9
CC(C)[C@@H]1NC(=O)[C@H](Cc2c[nH]c3ccccc23)NC(=O)[C@@H]2CCCN2C(=O)[C@@H]2CSCCC(=O)N3CN(CN(C3)C(=O)CCSC[C@H](NC(=O)[C@H](C)N)C(=O)N[C@@H](CO)C(=O)N[C@@H](Cc3ccccc3)C(=O)N[C@@H](Cc3ccc(O)cc3)C(=O)N[C@@H](CCCCNC(=N)N)C(=O)N2)C(=O)CCSC[C@@H](C(=O)N[C@@H](C)C(N)=O)NC(=O)CNC(=O)[C@H](CCC(=O)O)NC1=O [Peptide 34] (HELM PEPTIDE1{A.C.S.F.Y.[N=C(N)NCCCC[C@H](N[*:1])C(=O)[*:2]].C.P.W.V.E.G.C.A.[am]}|CHEM1{[O=C(CC[*:1])N1CN(C(=O)CC[*:2])CN(C(=O)CC[*:3])C1]}$PEPTIDE1,CHEM1,2:R3-1:R1|PEPTIDE1,CHEM1,7:R3-1:R2|PEPTIDE1,CHEM1,13:R3-1:R3$$$V2.0)	27.1
